In US20220324835A1 (Nurix Therapeutics, Inc., priority 2018, published 2022) one finds fold induction and IC50 data, which are given here for 5 compounds.

For assay [1], the system named is T-cell. In words: IL-2 secretion from T-cells stimulated with anti-CD3 antibody alone (Biological Example 2). The format is cell-based. To be noted: 1 μM compound, primary human total T-cells, read-out: IL-2 secretion, Anti-CD3 stimulation, fold change over baseline.
The test system of assay [2] is T-cell. In words: CD25 cell surface staining on T-cells co-stimulated with anti-CD3 and anti-CD28 antibody (Biological Example 2). Type of assay: cell-based, human. As to conditions: Homo sapiens, T-cell, primary human total T-cells, baseline = anti-CD3/anti-CD28 stimulated cells without inhibitor, read-out: CD25 staining, Anti-CD3/Anti-CD28 stimulation, fold change over baseline; for fold induction at 0.3 µM: 0.3 μM compound; for fold induction at 1 µM: 1 μM compound. The method, boiled down: (§1)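 No assay protocol given; T-cells stimulated with anti-CD3 alone or anti-CD3 plus anti-CD28, with or without Cbl-b inhibitor. Activation read as IL-2 secretion or CD25 surface staining, expressed as fold over baseline from uninhibited cells […].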

For assay [3], the target named is T1, Cbl-b (Homo sapiens, UniProt Q13191). In words: Cbl-b inhibition assay (Cbl-b activity assay, FRET, Biological Example 1; 100 mM NaCl, 60 nM Src kinase). Type of assay: biochemical. As to conditions: upper bound stated in text lists; read-out: IC50 values in the Cbl-b inhibition assay of Biological Example 1. The gist of the method:
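FRET read-out: loss of signal marks inhibition. Mix = biotin-Avi-Cbl-b (N-term), Src kinase, UbcH5B-Ub(Bodipy-FL, irreversible conjugate), streptavidin-Tb, assay buffer.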

In assay [4] the test system is T-cell. The assay can be described thus: CD25 cell surface staining on T-cells stimulated with anti-CD3 antibody alone (Biological Example 2). Type of assay: cell-based. As to conditions: 1 μM compound, primary human total T-cells, baseline = anti-CD3/anti-CD28 stimulated cells without inhibitor, read-out: CD25 staining, Anti-CD3 stimulation, fold change over baseline.

For assay [5], the system named is T-cell. In words: IL-2 secretion from T-cells co-stimulated with anti-CD3 and anti-CD28 antibody (Biological Example 2). The format is cell-based, human. As to conditions: Homo sapiens, T-cell, primary human total T-cells, baseline = anti-CD3/anti-CD28 stimulated cells without inhibitor, read-out: IL-2 secretion, Anti-CD3/Anti-CD28 stimulation, fold change over baseline; for fold induction at 0.3 µM: 0.3 μM compound; for fold induction at 1 µM: 1 μM compound. The method, boiled down:
as §1

Assay [6] deals with T1, Cbl-b. In words: Cbl-b activity assay (Cbl-b inhibition assay), TR-FRET of Cbl-b interaction with UbcH5B-Ub. Type of assay: biochemical. To be noted: assay buffer with 100 mM NaCl, 60 nM Src kinase; read-out: Cbl-b activity IC50. The method, boiled down:
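TR-FRET readout of Cbl-b binding to Bodipy-fluorescein N-terminally labeled Ub conjugated to UbcH5B C85K, measured with compound present. After compound incubation, 60 nM Src kinase with 1 mM ATP and 5 mM MgCl2 (final) was added for 1.5 h, then a further 1 h incubation; asterisked values used 50 mM NaCl buffer and 30 nM Src.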
On the technique in general: Time-resolved FRET reads energy transfer from a long-lived donor to a nearby acceptor.

One may read the IC50 as the concentration that inhibits the measured activity by half.

T1 sequence (Q13191 36-427): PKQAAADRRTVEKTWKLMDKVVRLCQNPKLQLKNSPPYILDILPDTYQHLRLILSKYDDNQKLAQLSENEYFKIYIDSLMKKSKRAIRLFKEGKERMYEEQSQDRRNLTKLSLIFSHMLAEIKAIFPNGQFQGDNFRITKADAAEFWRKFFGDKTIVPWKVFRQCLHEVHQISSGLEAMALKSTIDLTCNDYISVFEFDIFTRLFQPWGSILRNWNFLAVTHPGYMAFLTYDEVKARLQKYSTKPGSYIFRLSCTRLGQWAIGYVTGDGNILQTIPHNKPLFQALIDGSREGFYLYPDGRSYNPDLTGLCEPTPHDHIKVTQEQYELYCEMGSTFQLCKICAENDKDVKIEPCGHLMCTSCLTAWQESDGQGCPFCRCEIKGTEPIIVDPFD

For `CC[C@H](c1cc2c(c(C(F)(F)F)c1)CN(c1cccc(C3(Cc4nncn4C)COC3)c1)C2=O)N1CC[C@H](F)C1` [Example 546, 6-((R)-1-((S)-3-fluoropyrrolidin-1-yl)propyl)-2-(3-(3-((4-methyl-4H-1,2,4-triazol-3-yl)methyl)oxetan-3-yl)phenyl)-4-(trifluoromethyl)isoindolin-1-one], the fold induction at 1 µM with T-cell [1] was over 0.201; in the assay with T-cell [2], 1.51 to 1.75; in the assay with T-cell [4], over 1; with T-cell [5] it was over 7.5. The figures for the fold induction at 0.3 µM with T-cell [2] and in the assay with T-cell [5] were 1.51 to 1.75 and over 7.5, respectively. The IC50 on Cbl-b [3] is at most 100 nM; on Cbl-b [6] it was under 100 nM.
Take `Cn1cnnc1CC1(c2cccc(N3Cc4c(cc(C(F)(F)CO)cc4C(F)(F)F)C3=O)c2)COC1` [Example 547, 6-(1,1-difluoro-2-hydroxyethyl)-2-(3-(3-((4-methyl-4H-1,2,4-triazol-3-yl)methyl)oxetan-3-yl)phenyl)-4-(trifluoromethyl)isoindolin-1-one]: the fold induction at 1 µM lay in the range of 0.101 to 0.15 in the assay with T-cell [1], 1.01 to 1.3 in the assay on T-cell [2], 0.801 to 1 in the assay on T-cell [4] and 1.01 to 2.5 in the assay with T-cell [5]. Also, the fold induction at 0.3 µM is 1.01 to 1.3 in the assay on T-cell [2] and 1.01 to 2.5 with T-cell [5]. Further, the IC50 at Cbl-b [3] was at most 100 nM; on Cbl-b [6], under 100 nM.
On to `CN(c1cc2c(c(C(F)(F)F)c1)CN(c1cccc([C@@](C)(F)C(F)(F)c3nncn3C)c1)C2=O)[C@@H]1CNC[C@@H]1F` [Example 548, 6-(((3R,4S)-4-fluoropyrrolidin-3-yl)(methyl)amino)-2-(3-((R)-1,1,2-trifluoro-1-(4-methyl-4H-1,2,4-triazol-3-yl)propan-2-yl)phenyl)-4-(trifluoro-methyl)isoindolin-1-one], for which the fold induction at 1 µM lay in the range of 0.101 to 0.15 in the assay on T-cell [1], 1.01 to 1.3 in the assay with T-cell [2], 0.601 to 0.8 with T-cell [4] and 2.51 to 5 in the assay with T-cell [5]. Further, the fold induction at 0.3 µM in the assay with T-cell [2] was in the range of 1.01 to 1.3; with T-cell [5], 1.01 to 2.5. Further, the IC50 on Cbl-b [3] is at most 300 nM; on Cbl-b [6] it was 100 to 300 nM.
In the case of `CN(c1cc2c(c(C(F)(F)F)c1)CN(c1cccc([C@@](C)(F)C(F)(F)c3nncn3C)c1)C2=O)[C@H]1CNC[C@H]1F` [Example 549, 6-(((3S,4R)-4-fluoropyrrolidin-3-yl)(methyl)amino)-2-(3-((R)-1,1,2-trifluoro-1-(4-methyl-4H-1,2,4-triazol-3-yl)propan-2-yl)phenyl)-4-(trifluoromethyl)iso-indolin-1-one], the fold induction at 1 µM lay within 0.151 to 0.2 in the assay on T-cell [1], 1.31 to 1.5 in the assay with T-cell [2], 0.801 to 1 in the assay with T-cell [4] and 2.51 to 5 with T-cell [5]. Further, the results for the fold induction at 0.3 µM with T-cell [2] and in the assay with T-cell [5] were 1.01 to 1.3 and 1.01 to 2.5, respectively. Further, the figures for the IC50 on Cbl-b [3] and at Cbl-b [6] were at most 300 nM and 100 to 300 nM, respectively.
Regarding `C[C@@H](c1cc2c(c(C(F)(F)F)c1)CN(c1cccc(C3(Cc4nncn4C)COC3)c1)C2=O)N1CCC2(CC1)CC2` [Example 558a, (S)-6-(1-(6-azaspiro[2.5]octan-6-yl)ethyl)-2-(3-(3-((4-methyl-4H-1,2,4-triazol-3-yl)methyl)oxetan-3-yl)phenyl)-4-(trifluoromethyl)isoindolin-1-one], the fold induction at 1 µM is over 0.201 in the assay on T-cell [1], 1.01 to 1.3 with T-cell [2], over 1 in the assay on T-cell [4] and over 7.5 with T-cell [5]. Moreover, the fold induction at 0.3 µM in the assay with T-cell [2] is 1.01 to 1.3; in the assay with T-cell [5], over 7.5. The IC50 at Cbl-b [3] was at most 100 nM; on Cbl-b [6], under 100 nM.
